Assays:
[1] = system: rats suffered from acute pharyngitis caused by Staphylococcus aureus; test: Peripheral white blood cell count and classification, rat acute pharyngitis model; type: in vivo, SD rats; details: composition 3.5 g/kg, amoxicillin 0.36 g/kg, x ± s, n = 7
Excerpt: Before each group of animals were scarified, blood was taken by cutting tails and smeared on plates to conduct routine blood examinations about number of white blood cells, lymphocyte percentages and neutrophils percentages.

[2] = system: rats suffered from acute pharyngitis caused by Staphylococcus aureus; test: Pathological morphology of pharyngeal tissues (HE staining), rat acute pharyngitis model; type: in vivo, SD rats; details: HE sections, FIG. 2A-2D
Experimental: Material taking: rats were anesthetized and pharyngeal tissues were taken and fixed in 4% paraformaldehyde for more than 24 h. The tissues were taken from the fixing solution and in a fume hood, the tissues at the target region were trimmed with a surgical knife. The trimmed tissues and the corresponding tags were placed in a dehydration box.
Dehydration: the dehydration was conducted by placing the dehydration box in a hanging basket, and in a dehydration machine, the dehydration was conducted with alcohols with gradient concentrations in order. 75% alcohol 1 h-85% alcohol 1 h-90% alcohol 1 h-95% alcohol 1 h-anhydrous ethanol I 30 min-anhydrous ethanol II 30 min-alcohol benzene 5-10 min-xylene I 5-10 min-xylene II 5-10 min-wax I 1 h-wax II 1 h-wax III 1 h.
Embedding: the tissues immersed with wax were embedded in an embedding machine. The molten wax was placed in an embedding frame first, and before it was solidified, the tissues were taken from the dehydration box and placed in the embedding frame according to requirements on embedded faces and corresponding tags were attached. They were cooled on a freezing table at −20° C., and after wax solidification, the wax block was taken from the embedding frame and trimmed.
Slicing: the trimmed wax block was sliced on a paraffin slicing machine, in a thickness of 4 μm. […]

[3] = system: rats suffered from acute pharyngitis caused by Staphylococcus aureus; test: Appearance behavior scoring and thymus weight, rat acute pharyngitis model caused by Staphylococcus aureus; type: in vivo, SD rats; details: ig, composition 3.5 g/kg, amoxicillin 0.36 g/kg, x ± s, n = 7
Experimental: Formulations of medicinal solutions: before the test, distilled water was used to formulate a medicinal solution with a concentration of 0.35 g/ml, which was intragastrically administrated in 1 ml/100 g body weight/time, 2 times/day, and on 7th day after pre-administrations, modelling was started and the intragastric administration was continued for 5 days.
On 1st day, at 1 h after Staphylococcus aureus infection, the positive medicinal group was intragastrically administrated at a dose of 0.36 g/kg (equivalently equal to the clinical dose of a human), 1 time/day for 5 consecutive days.
With scoring standard (from Standards for Preparation of Animal Models Suffered from Acute Pharyngitis, enacted by Traditional Chinese medicine Experimental Pharmacology Professional Committee of Traditional Chinese Medicine Institute, Traditional Chinese Medicine Pharmacology and Clinics 2018; 34 (1)), according to weights, mobility, fur color and gloss of rats, they were classified into 4 grades, as shown in the following Table 4.

[4] = system: rats suffered from acute pharyngitis caused by Staphylococcus aureus; test: Inflammatory factors in rat serum by ELISA, rat acute pharyngitis model; type: in vivo, SD rats; details: composition 3.5 g/kg, amoxicillin 0.36 g/kg, x ± s, n = 7
Experimental: Rates were anesthetized. Blood was taken from abdominal aorta and injected into a procoagulant tube, standing for 45 min at room temperature, and it was centrifuged at 3500 rpm for 10 min. The supernatant was suction taken into a sterile EP tube and stored at −80° C. Before measurements, the samples were re-thawed at room temperature, and the IL-1β, IL-6 and TNF-α levels in serum were measured by enzyme-linked immunosorbent assay (ELISA). The operations were carried out according to the instruction of the kit, and each index was detected by an enzyme-labelled meter at the absorbance 450 nm.

[5] = system: rats suffered from acute pharyngitis caused by Staphylococcus aureus; test: Scoring of pharyngeal lesions, rat acute pharyngitis model; type: in vivo, SD rats; set-up: key to Pharyngeal inflammatory response grade of most animals: −: pharyngeal tissues were in light red color, and they had moist and glossy surfaces, and no secreted substances, no congestion, no swelling and other pathological phenomena; +: the mucosa in the pharynx had poor gloss, and there were a small amount of secreted substances, and slight congestions and swelling; ++: the mucosa in the pharynx was in a dark red color and poor in the gloss, and secreted substances exist therein, accompanying by moderate congestions and swelling and other phenomena; +++: the mucosa in the pharynx exhibited a dark red color, increased secretion of mucus, and evident congestion and swelling
ARE = ARE luciferase reporter gene activity in transfected 293T cells; type: cell-based; details: tBHQ 10 μM, 6 h; relative luciferase activity L/S; x ± SD, n = 18; control 0.76
Experimental: (§1) The 293T cells in the logarithmic growth phase were taken and inoculated into a 96-well cell culture plate at a density of 2×10^5 cell/mL, and after growth along the walls to 70-80%, a PEI (1 mg/ml) transfecting agent was used to simultaneously transfect them with ARE and NF-κB luciferase reporter plasmids pGL4.37, pGL4.32 (100 ng/well) and a renilla luciferase reported plasmid pGL4.75 (10 ng/well), and they were cultured for 24 h.
(§2) After 24-h culture, the cells transfected with the ARE luciferase reporter plasmid pGL4.37 are added with tBHQ (10 μM) and safety concentrations of the sample solutions of the individual inventive pharmaceutical composition groups, and by setting a control group, and they were cultured 6 h; the cells transfected with NF-kB luciferase reporter plasmid pGL4.32 were respectively added with dexamethasone (10 μM) diluted by a TNF-α complete culture medium, and safety concentrations of the sample solutions of the individual inventive pharmaceutical composition groups, and by setting a control group, and a model group, and they were cultured for 6 h. The supernatant was discarded, and the cells were rinsed with PBS. After splitting, they were detected by using a Dual-Luciferase detection system. Each set of experiments were configured with 6 compound wells, with 3 repetitions. […]

NF-κB = type: cell-based; details: dexamethasone 10 μM with TNF-α, 6 h; L/S; x ± SD, n = 18; model 4641.34, control 17.46
Experimental: as §1, §2

[6] = of 7 rats, composition 3.5 g/kg, amoxicillin 0.36 g/kg

CC1(C)S[C@@H]2[C@H](NC(=O)[C@H](N)c3ccc(O)cc3)C(=O)N2[C@H]1C(=O)O [Amoxicillin]
L (%), percentages of lymphocytes [1]: 76.37 ± 7.42 % | N (%), percentages of neutrophils [1]: 19.5 ± 6.77 % | WBC (×10^9/L), white cells [1]: 8.17 ± 30^ ×10^9/L | Pathological morphology of pharyngeal tissues (inflammatory cell infiltration, mucosa recovery) [2]: very similar to those in the inventive pharmaceutical composition group | Thymus gland [3]: 0.26 ± 0.11 g | Fur gloss (appearance behavior score) ([3]; index grade 0-3 (Table 4)): 1.14 ± 0.38 | Mobility (appearance behavior score) ([3]; index grade 0-3 (Table 4)): 1.43 ± 0.53 | IL-1β (pg/mL) in peripheral blood [4]: 254.04 ± 59.15 pg/mL | IL-6 (pg/mL) in peripheral blood [4]: 28.21 ± 8.67 pg/mL | TNF-α (pg/mL) in peripheral blood [4]: 145.14 ± 30.98 pg/mL | Pharyngeal lesions: number of animals in grade + [5, 6]: 6 | Pharyngeal lesions: number of animals in grade ++ [5, 6]: 1 | Pharyngeal lesions: number of animals in grade +++ [5, 6]: 0 | Pharyngeal lesions: number of animals in grade − [5, 6]: 0 | Pharyngeal inflammatory response grade of most animals ([5]; summary of Table 6): +

CC(C)(C)c1cc(O)ccc1O [tBHQ, Tertiary butylhydroquinone]
ARE luciferase activity of 293T cells (ARE): 3.55

C[C@@H]1C[C@H]2[C@@H]3CCC4=CC(=O)C=C[C@]4(C)[C@@]3(F)[C@@H](O)C[C@]2(C)[C@@]1(O)C(=O)CO [Dex, Dexamethasone]
NF-κB luciferase activity of 293T cells (NF-κB): 968.61

— patent publication US20240261359A1, “PHARMACEUTICAL COMPOSITION FOR USE PREVENTING AND CURING RESPIRATORY DISEASES IN WINTER” (Tianjin University of Traditional Chinese Medicine, priority 2020, published 2024)
